Consider three molecules from patent US11597708B2, “Inhibitors of heat shock factors and uses thereof” (HSF Pharmaceuticals SA, priority 2016, dated 2023).

Assay [1] has as its target T1, HSF1 (Homo sapiens, UniProt Q00613).
T1 construct: functionally linked to an hsp70b promoter and therefore controlled by endogenous HSF1; endogenous in cells; host or cells: HeLa cells / HeLa-derived cell line Z74
T1 sequence (Q00613 1-529): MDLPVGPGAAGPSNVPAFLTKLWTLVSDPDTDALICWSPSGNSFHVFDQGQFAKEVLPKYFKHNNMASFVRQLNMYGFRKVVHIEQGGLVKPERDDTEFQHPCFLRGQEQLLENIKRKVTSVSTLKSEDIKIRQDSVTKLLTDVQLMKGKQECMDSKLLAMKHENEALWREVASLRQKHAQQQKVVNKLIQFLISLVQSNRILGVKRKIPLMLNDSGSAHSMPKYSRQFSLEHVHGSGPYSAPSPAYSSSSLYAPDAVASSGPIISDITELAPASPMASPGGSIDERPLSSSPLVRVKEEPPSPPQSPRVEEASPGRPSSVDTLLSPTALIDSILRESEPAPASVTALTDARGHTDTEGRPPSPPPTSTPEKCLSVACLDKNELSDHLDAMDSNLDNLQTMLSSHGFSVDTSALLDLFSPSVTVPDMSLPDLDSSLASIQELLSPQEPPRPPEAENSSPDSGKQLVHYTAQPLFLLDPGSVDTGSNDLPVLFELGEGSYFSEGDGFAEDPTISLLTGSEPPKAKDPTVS
Put plainly: Z74 cell-based reporter assay: heat-induced RLuc expression controlled by endogenous HSF1. Conditions: for IC50: inhibition of HSF1 activity [RLuc]; for inhibition at 12.5 µM: 12.5 μM IHSF, negative values marked *: compound enhanced rLuc activity, read-out: Inhibition of HSF1 activity at 12.5 μM IHSF [RLuc] (%). In a few lines:
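HeLa-derived Z74 cells carry LexA-HSF1-driven firefly luciferase and hsp70b promoter-driven Renilla luciferase, the latter under endogenous HSF1. Cells were treated with compound at 12.5 or 25 μM for 2 h, heated to 43.0 °C for 30 min, then kept 6 h at 37 °C. Both luciferases were read by dual-luciferase luminescence.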
On the technique in general: Reporter assays use an easily measured gene product as a stand-in for the process of interest.

The test system of assay [2] is hspa1a. Put plainly: Reverse transcription real-time PCR of hspa1a mRNA in Z74 cells. It counts as cell-based, human. The following applies: heat-treated, somewhat less sensitive than rluc gene. The procedure:
FIG. 4. (A) rluc, hspa7 and hspa1a mRNA levels in Z74 cells mock-exposed (−) or exposed to the indicated concentrations of compounds 058 or 115 for 2 hours, heat-treated (HS) at 43° C. for 30 min and post-incubated for one hour at 37° C. mRNA levels were quantified by reverse transcription-real-time PCR. (B) HSP72 levels in HeLa cells mock-exposed (−) or exposed to the indicated concentrations of compounds 058 or 115 for 2 hours, heat-treated (HS) at 43° C. for 30 min and post-incubated for 6 hours at 37° C. HSP72 levels were estimated by HSP72 WB. GAPDH levels served as “loading controls”.
To assess the transcriptional effects of the IHSF, cultures of Z74 cells were exposed for two hours to IHSF 058 or IHSF 115 at different concentrations, or to vehicle. Following heat treatment and a one-hour post-incubation at 37° C., extracts were prepared, and polyadenylated rluc, hsp70b (hspa7) and hspa1a RNA was quantified by reverse transcription and real-time PCR. […] IHSF 115 had somewhat more important effects than IHSF 058. […] We tend to discount the possibility that the latter data report effects on transcript stability.
For orientation: Quantitative PCR measures a nucleic acid by following its amplification.

Setting [3] is: Z74 cells, 25 μM IHSF, 2 h exposure, 43° C. 30 min, 6 h at 37° C., read-out: Inhibition of HSF1 activity at 25 μM IHSF [RLuc] (%).

SMILES strings stand for the structures. Where two headings read alike, the source gives them in different places.

Turning to `CCOC(=O)/C=C/C(=O)Nc1nccs1` [IHSF 001, (E)-ethyl 4-oxo-4-(thiazol-2-ylamino)but-2-enoate], the inhibition at 25 µM in assay [1] (IHSF 001 tested at 25 μM, Experiment No. 1, read-out: Inhibition of HSF1 activity [RLuc] (%)) was found to be 66%; in assay [1] (IHSF 001 tested at 25 μM, Experiment No. 2, read-out: Inhibition of HSF1 activity [RLuc] (%)) it was 69%; in assay [1] (IHSF 001 tested at 25 μM, Experiment No. 3, read-out: Inhibition of HSF1 activity [RLuc] (%)) it was 69%; in assay [1] (IHSF 001 tested at 25 μM, Experiment No. 4, read-out: Inhibition of HSF1 activity [RLuc] (%)) it was 67%; in assay [1] (IHSF 001 tested at 25 μM, Experiment No. 5, read-out: Inhibition of HSF1 activity [RLuc] (%)) it was 68%; in assay [1] (IHSF 001 tested at 25 μM, Experiment No. 6, read-out: Inhibition of HSF1 activity [RLuc] (%)), 63%. Further, the inhibition at 25 µM in assay [1] (IHSF 001 tested at 25 μM, Experiment No. 7, read-out: Inhibition of HSF1 activity [RLuc] (%)) was found to be 56%; in assay [1] (IHSF 001 tested at 25 μM, Experiment No. 8, read-out: Inhibition of HSF1 activity [RLuc] (%)), 51%; in assay [1] (IHSF 001 tested at 25 μM, Experiment No. 9, read-out: Inhibition of HSF1 activity [RLuc] (%)), 45%; in assay [1] (setting [3]), 64%. For the same molecule, in assay [1] (Z74 cells), the IC50 came to 17.8 µM. The inhibition at 12.5 µM in assay [1] (Z74 cells) is 37%.

As to `CCOC(=O)/C=C/C(=O)Nc1ncc(-c2cccnc2)s1` [IHSF 058, (E)-3-(5-Pyridm-3-yl-thiazol-2-ylcarbamoyl)-acrylic acid ethyl ester], in assay [2], the hspa1a transcript accumulation entry was “Dose-dependent inhibitory effects”. Also, in assay [1] (Z74 cells), the half-inhibitory concentration (IC50) was 4.8 µM and the inhibition at 12.5 µM amounted to 79%. Moreover, the inhibition at 25 µM in assay [1] (setting [3]) was 97%.

For `CN(C(=O)/C=C/C1=NCCCO1)c1ncc(-c2cccnc2)s1` [IHSF 115, (E)-3-(5,6-Dihydro-4H-[1,3]oxazin-2-yl)-N-methyl-N-(5-pyridin-3-yl-thiazol-2-yl)-acrylamide], in assay [2], the hspa1a transcript accumulation entry is recorded as “Dose-dependent inhibitory effects”. Also, in assay [1] (Z74 cells), the IC50 was found to be 0.7 µM and the inhibition at 12.5 µM amounted to 99%. In addition, in assay [1] (setting [3]), the inhibition at 25 µM came out at 100%. Besides, the “activity in the Z74-based screening assay” value in assay [1] (most potent IHSF) is given as “substantial activity in the high nanomolar range”.

By inhibition is commonly meant the change of the read-out against control, counted positive when it falls. In general, IC50 refers to the concentration needed to halve the response being measured.
